In patent publication US10927123B2, “Modulators of the beta-3 adrenergic receptor useful for the treatment or prevention of disorders related thereto” (Arena Pharmaceuticals, Inc., priority 2016, dated 2021):
pIC50: −log10 of the molar value.

Target: Beta-3 Adrenergic Receptor (Homo sapiens (Human), UniProt P13945)
Assay: HTRF cAMP antagonist assay (IC50 determination)
Format: cell-based
Details: CHO-K1 cells stably expressing recombinant receptor; antagonism of isoproterenol at EC90; cAMP readout
Method in brief: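 CHO-K1 cells stably expressing the recombinant receptor were preincubated with compound (10-point, 5-fold dilutions; top final typically 10 or 100 μM) in PBS with 1 mM IBMX, then stimulated with isoproterenol at its EC90 for 1 h at room temperature. cAMP was read by HTRF against an on-plate standard curve.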

Chain of Beta-3 Adrenergic Receptor (P13945 whole entry, species assumed): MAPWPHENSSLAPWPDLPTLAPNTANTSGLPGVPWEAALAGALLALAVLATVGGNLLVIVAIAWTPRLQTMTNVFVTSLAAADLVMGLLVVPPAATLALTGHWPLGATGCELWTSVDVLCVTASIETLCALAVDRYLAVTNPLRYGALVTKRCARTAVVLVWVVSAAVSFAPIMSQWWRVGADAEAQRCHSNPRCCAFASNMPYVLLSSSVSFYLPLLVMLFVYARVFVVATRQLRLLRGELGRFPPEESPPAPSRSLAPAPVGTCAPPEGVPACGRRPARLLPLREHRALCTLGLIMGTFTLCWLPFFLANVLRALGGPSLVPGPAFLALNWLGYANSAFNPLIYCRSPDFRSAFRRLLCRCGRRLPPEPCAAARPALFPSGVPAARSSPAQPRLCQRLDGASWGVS

Compared with `CC(C)S(=O)(=O)c1cccc(OC[C@@H](O)CN[C@H]2COC3(CCN(S(=O)(=O)c4cnc5c(c4)N(C)CCO5)CC3)C2)c1` [Compound 153, (S)-1-(3-(isopropylsulfonyl)phenoxy)-3-((R)-8-(1-methyl-2,3-dihydro-1H-pyrido[2,3-b][1,4]oxazin-7-ylsulfonyl)-1-oxa-8-azaspiro[4.5]decan-3-ylamino)propan-2-ol], `CN1CCOc2ncc(S(=O)(=O)N3CCC4(CC3)C[C@@H](NC[C@H](O)COc3cccc(S(=O)(=O)CC(N)=O)c3)CO4)cc21` [Compound 159, 2-(3-((S)-2-hydroxy-3-((R)-8-(1-methyl-2,3-dihydro-1H-pyrido[2,3-b][1,4]oxazin-7-ylsulfonyl)-1-oxa-8-azaspiro[4.5]decan-3-ylamino)propoxy)phenylsulfonyl)acetamide] is 0.98 log units lower in pIC50: 7.73 for the first, 6.75 for the second.

Going from `CN1CCOc2ncc(S(=O)(=O)N3CCC4(CC3)C[C@@H](NC[C@H](O)COc3cccc(S(=O)(=O)C5(CO)CC5)c3)CO4)cc21` [Compound 155, (S)-1-(3-(1-(hydroxymethyl)cyclopropylsulfonyl)phenoxy)-3-((R)-8-(1-methyl-2,3-dihydro-1H-pyrido[2,3-b][1,4]oxazin-7-ylsulfonyl)-1-oxa-8-azaspiro[4.5]decan-3-ylamino)propan-2-ol] to `CN1CCOc2ncc(S(=O)(=O)N3CCC4(CC3)C[C@@H](NC[C@H](O)COc3cccc(S(=O)(=O)C(F)(F)CO)c3)CO4)cc21` [Compound 156, (S)-1-(3-(1,1-difluoro-2-hydroxyethylsulfonyl)phenoxy)-3-((R)-8-(1-methyl-2,3-dihydro-1H-pyrido[2,3-b][1,4]oxazin-7-ylsulfonyl)-1-oxa-8-azaspiro[4.5]decan-3-ylamino)propan-2-ol], the pIC50 rises from 7.32 to 7.61 (0.29 log units).

`NCc1ccc(-c2cccc(S(=O)(=O)N3CCC4(CC3)C[C@@H](NC[C@H](O)COc3cccc(S(=O)(=O)C5(CO)CC5)c3)CO4)c2)cc1` [Compound 157, (S)-1-((R)-8-(4′-(aminomethyl)biphenyl-3-ylsulfonyl)-1-oxa-8-azaspiro[4.5]decan-3-ylamino)-3-(3-(1-(hydroxymethyl)cyclopropylsulfonyl)phenoxy)propan-2-ol] and `NCc1ccc(-c2cccc(S(=O)(=O)N3CCC4(CC3)C[C@H](NC[C@H](O)COc3cccc(S(=O)(=O)C5(CO)CC5)c3)CO4)c2)cc1` [Compound 164, (S)-1-((S)-8-(4′-(aminomethyl)biphenyl-3-ylsulfonyl)-1-oxa-8-azaspiro[4.5]decan-3-ylamino)-3-(3-(1-(hydroxymethyl)cyclopropylsulfonyl)phenoxy)propan-2-ol] are within 0.2 log units of each other in pIC50: 7.59 for the first, 7.56 for the second.

Compared with `CCOc1ccc(-c2ccc(CN)cc2)cc1S(=O)(=O)N1CCC2(CC1)C[C@@H](NC[C@H](O)COc1cccc(S(=O)(=O)C3(CO)CC3)c1)CO2` [Compound 158, (S)-1-((R)-8-(4′-(aminomethyl)-4-ethoxybiphenyl-3-ylsulfonyl)-1-oxa-8-azaspiro[4.5]decan-3-ylamino)-3-(3-(1-(hydroxymethyl)cyclopropylsulfonyl)phenoxy)propan-2-ol], `CCOc1ccc(-c2ccc(CNC(C)C)cc2)cc1S(=O)(=O)N1CCC2(CC1)C[C@@H](NC[C@H](O)COc1cccc(S(=O)(=O)C3(CO)CC3)c1)CO2` [Compound 165, (S)-1-((R)-8-(4-ethoxy-4′-((isopropylamino)methyl)biphenyl-3-ylsulfonyl)-1-oxa-8-azaspiro[4.5]decan-3-ylamino)-3-(3-(1-(hydroxymethyl)cyclopropylsulfonyl)phenoxy)propan-2-ol] is 0.37 log units lower in pIC50: 7.56 for the first, 7.19 for the second. The first is the more potent here.

Going from `CCOc1ccc(-c2ccc(CN)cc2)cc1S(=O)(=O)N1CCC2(CC1)C[C@H](NC[C@H](O)COc1cccc(S(=O)(=O)C3CC3)c1)CO2` [Compound 160, (S)-1-((S)-8-(4′-(aminomethyl)-4-ethoxybiphenyl-3-ylsulfonyl)-1-oxa-8-azaspiro[4.5]decan-3-ylamino)-3-(3-(cyclopropylsulfonyl)phenoxy)propan-2-ol] to `CC(C)Oc1ccc(-c2ccc(CN)cc2)cc1S(=O)(=O)N1CCC2(CC1)C[C@H](NC[C@H](O)COc1cccc(S(=O)(=O)C3CC3)c1)CO2` [Compound 166, (S)-1-((S)-8-(4′-(aminomethyl)-4-isopropoxybiphenyl-3-ylsulfonyl)-1-oxa-8-azaspiro[4.5]decan-3-ylamino)-3-(3-(cyclopropylsulfonyl)phenoxy)propan-2-ol], the pIC50 falls from 7.94 to 7.29 (0.65 log units).

`CCOc1ccc(-c2ccc(CN)cc2)cc1S(=O)(=O)N1CCC2(CC1)C[C@@H](NC[C@H](O)COc1cccc(S(=O)(=O)C(F)(F)CO)c1)CO2` [Compound 161, (S)-1-((R)-8-(4′-(aminomethyl)-4-ethoxybiphenyl-3-ylsulfonyl)-1-oxa-8-azaspiro[4.5]decan-3-ylamino)-3-(3-(1,1-difluoro-2-hydroxyethylsulfonyl)phenoxy)propan-2-ol] and `CCOc1ccc(-c2ccc(CN)cc2)cc1S(=O)(=O)N1CCC2(CC1)C[C@H](NC[C@H](O)COc1cccc(S(=O)(=O)C(F)(F)CO)c1)CO2` [Compound 168, (S)-1-((S)-8-(4′-(aminomethyl)-4-ethoxybiphenyl-3-ylsulfonyl)-1-oxa-8-azaspiro[4.5]decan-3-ylamino)-3-(3-(1,1-difluoro-2-hydroxyethylsulfonyl)phenoxy)propan-2-ol] are within 0.2 log units of each other in pIC50: 7.67 for the first, 7.81 for the second.

First: NCc1ccc(-c2ccc(F)c(S(=O)(=O)N3CCC4(CC3)C[C@H](NC[C@H](O)COc3cccc(S(=O)(=O)C5(CO)CC5)c3)CO4)c2)cc1 [Compound 162, (S)-1-((S)-8-(4′-(aminomethyl)-4-fluorobiphenyl-3-ylsulfonyl)-1-oxa-8-azaspiro[4.5]decan-3-ylamino)-3-(3-(1-(hydroxymethyl)cyclopropylsulfonyl)phenoxy)propan-2-ol]
Second: NCc1ccc(-c2ccc(F)c(S(=O)(=O)N3CCC4(CC3)C[C@@H](NC[C@H](O)COc3cccc(S(=O)(=O)C5(CO)CC5)c3)CO4)c2)cc1 [Compound 169, (S)-1-((R)-8-(4′-(aminomethyl)-4-fluorobiphenyl-3-ylsulfonyl)-1-oxa-8-azaspiro[4.5]decan-3-ylamino)-3-(3-(1-(hydroxymethyl)cyclopropylsulfonyl)phenoxy)propan-2-ol]
The pIC50 of the first is 0.23 log units lower: 7.53 for the first, 7.76 for the second.

First: Cc1ccc(-c2cccc(S(=O)(=O)N3CCC4(CC3)C[C@@H](NC[C@H](O)COc3cccc(S(=O)(=O)C5(CO)CC5)c3)CO4)c2)cc1 [Compound 170, (S)-1-(3-(1-(hydroxymethyl)cyclopropylsulfonyl)phenoxy)-3-((R)-8-(4′-methylbiphenyl-3-ylsulfonyl)-1-oxa-8-azaspiro[4.5]decan-3-ylamino)propan-2-ol]
Second: NC1(c2ccc(-c3cccc(S(=O)(=O)N4CCC5(CC4)C[C@@H](NC[C@H](O)COc4cccc(S(=O)(=O)C6(CO)CC6)c4)CO5)c3)cc2)CC1 [Compound 173, (S)-1-((R)-8-(4′-(1-aminocyclopropyl)biphenyl-3-ylsulfonyl)-1-oxa-8-azaspiro[4.5]decan-3-ylamino)-3-(3-(1-(hydroxymethyl)cyclopropylsulfonyl)phenoxy)propan-2-ol]
The pIC50 of the first is 1.13 log units lower: 6.38 for the first, 7.51 for the second.

Going from `CC(C)Oc1ccc(-c2ccc(CN)cc2)cc1S(=O)(=O)N1CCC2(CC1)C[C@@H](NC[C@H](O)COc1cccc(S(=O)(=O)C3CC3)c1)CO2` [Compound 171, (S)-1-((R)-8-(4′-(aminomethyl)-4-isopropoxybiphenyl-3-ylsulfonyl)-1-oxa-8-azaspiro[4.5]decan-3-ylamino)-3-(3-(cyclopropylsulfonyl)phenoxy)propan-2-ol] to `CCOc1ccc(-c2ccc(C(C)(C)CN)cc2)cc1S(=O)(=O)N1CCC2(CC1)C[C@@H](NC[C@H](O)COc1cccc(S(=O)(=O)C3(CO)CC3)c1)CO2` [Compound 174, (S)-1-((R)-8-(4′-(1-amino-2-methylpropan-2-yl)-4-ethoxybiphenyl-3-ylsulfonyl)-1-oxa-8-azaspiro[4.5]decan-3-ylamino)-3-(3-(1-(hydroxymethyl)cyclopropylsulfonyl)phenoxy)propan-2-ol], the pIC50 falls from 7.60 to 6.16 (1.44 log units).

`CCOc1ccc(-c2ccc(C3(N)CC3)cc2)cc1S(=O)(=O)N1CCC2(CC1)C[C@@H](NC[C@H](O)COc1cccc(S(=O)(=O)C3(CO)CC3)c1)CO2` [Compound 172, (S)-1-((R)-8-(4′-(1-aminocyclopropyl)-4-ethoxybiphenyl-3-ylsulfonyl)-1-oxa-8-azaspiro[4.5]decan-3-ylamino)-3-(3-(1-(hydroxymethyl)cyclopropylsulfonyl)phenoxy)propan-2-ol] and `CCOc1ccc(-c2ccc(C(C)(C)CN)cc2)cc1S(=O)(=O)N1CCC2(CC1)C[C@H](NC[C@H](O)COc1cccc(S(=O)(=O)C3(CO)CC3)c1)CO2` [Compound 176, (S)-1-((S)-8-(4′-(1-amino-2-methylpropan-2-yl)-4-ethoxybiphenyl-3-ylsulfonyl)-1-oxa-8-azaspiro[4.5]decan-3-ylamino)-3-(3-(1-(hydroxymethyl)cyclopropylsulfonyl)phenoxy)propan-2-ol] are within 0.2 log units of each other in pIC50: 7.30 for the first, 7.23 for the second.

Going from `CCOc1ccc(-c2ccc(CCNC(C)=O)cc2)cc1S(=O)(=O)N1CCC2(CC1)C[C@@H](NC[C@H](O)COc1cccc(S(=O)(=O)C3(CO)CC3)c1)CO2` [Compound 175, N-(2-(4′-ethoxy-3′-((R)-3-((S)-2-hydroxy-3-(3-(1-(hydroxymethyl)cyclopropylsulfonyl)phenoxy)propylamino)-1-oxa-8-azaspiro[4.5]decan-8-ylsulfonyl)biphenyl-4-yl)ethyl)acetamide] to `CCOc1ccc(-c2ccc(CCNC(C)=O)cc2)cc1S(=O)(=O)N1CCC2(CC1)C[C@H](NC[C@H](O)COc1cccc(S(=O)(=O)C3(CO)CC3)c1)CO2` [Compound 177, N-(2-(4′-ethoxy-3′-((S)-3-((S)-2-hydroxy-3-(3-(1-(hydroxymethyl)cyclopropylsulfonyl)phenoxy)propylamino)-1-oxa-8-azaspiro[4.5]decan-8-ylsulfonyl)biphenyl-4-yl)ethyl)acetamide], the pIC50 rises from 6.15 to 7.30 (1.15 log units). The second is the more potent here.
